The test system of assay [1] is carrageenan-induced swelling in rat paws. Put plainly: Rat paw edema test (carrageenan). It is filed as in vivo, Sprague-Dawley rats. Conditions: 100 mg/kg intraperitoneal, rats. The protocol:
A second in vivo bioassay for anti-inflammatory activity was conducted in which the action of the tripeptide (SEQ ID NO: 1) was compared to that of hydrocortisone. In this assay, the two agents were given at similar doses and tested for their independent ability to inhibit carrageenan-induced swelling in rat paws. This assay, the rat paw edema test, was conducted generally as it is typically performed in the art, for example, as described by Winter et al. (1962), Proc. Soc. Exp. Biol. Med., 111:544 or in U.S. Pat. No. 4,150,137.
Briefly, the assay was performed as follows. Each of twenty-four male Sprague-Dawley rats was assigned to one of four groups: Tripeptide treatment and controls (matched according to body weight and initial paw volume), hydrocortisone treatment and matched controls. The volume of the right rear paw of the test and control animals was determined using standard procedures and a mercury displacement volumetric technique. […] One hour later 0.5 ml of 1% lambda carrageenan in saline solution was injected into the right rear paw of the animals and the paw volume was again recorded (baseline measure). For comparison of the effects of the two treatments, paw volume of experimental animals measured at hourly intervals was expressed as a percentage of the volume change of their respective matched controls.

Assay [2] deals with histamine-induced blue weal formation. Put plainly: Sparrow/Wilhelm histamine-induced blue weal assay. Conditions: for Result (relative intensity of blue weals, experimental vs control): scored 30 minutes after histamine. It is filed as in vivo, New Zealand white rabbits. The text has this: This model relies on the principal that localized, subcutaneous injections of histamine will result in a localized increase in capillary permeability. When the test animal has been pretreated with blue dye intravenously, the localized histamine injections will elicit blue-colored “weals” around the injection site. Thus, by preadministration of an effective anti-inflammatory agent the blue color of the histamine-induced weals will be much less pronounced, with the amount of color reduction being dependent on the relative amount and/or potency of the anti-inflammatory agent used.
Non-moulting New Zealand white rabbits were used for the Sparrow/Wilhelm assay. The skin of the rabbits back was closely clipped 1-2 days previous to the experiment, but not depilated, and the rabbits were kept warm until tested. […] Control rabbits received sham injections. Fifteen minutes following injection of the agent or sham, the rabbits received approximately 30 mg/kg of Pontamine blue dye as a 2.5% solution in 0.45% saline, into an exposed vein. Immediately following dye injections, histamine was injected intradermally in a 0.10 ml volume (1.25 mg histamine 0.1 ml volume) at several sites on each side of the spine. In all, one vertical row of six injections were made on each side of the spine. The relative intensity of the resultant blue weals were scored by an independent observer 30 minutes after histamine injection.

In the next assay the test system is C. albicans. In words: Horse serum-induced germ tube formation (germination) of C. albicans. It is filed as cell-based. The note with it: 10^−6M, 60 minutes at 37° C. after horse serum induction. On the procedure:
C. albicans from stationary phase cultures were washed twice with distilled water and suspended in HBSS to a final concentration of 2×10^6/ml. Hyphal growth was induced by addition of 10% inactivated horse serum (GIBCO/BRL, Great Britain) to yeast incubated for 45 minutes at 37° C. with continuous shaking. Horse serum was removed by washing cells twice with HBSS and incubation was continued for 60 minutes at 37° C. in the presence of α-MSH(1-13) (SEQ ID NO: 3), (6-13) (SEQ ID NO: 2) or (11-13) (SEQ ID NO: 1) at a concentration of 10^−6M with continuous shaking. The percentage of filamentous cells was evaluated under a light microscope with the aid of hemocytometer. Experiments were run in triplicate and at least 200 cells were scored. Photomicrographs were taken with a MC100 camera attached to an Axioskop Zeiss microscope.

Assay [3] has as its system inflammation induced in the ear by picryl chloride application. Put plainly: Picryl chloride-induced ear swelling. Conditions: for % Inhibition 3 h: 3 h after picryl chloride; for % Inhibition 6 h: 6 h after picryl chloride. It is filed as in vivo, BALB/C mice. On the procedure: Hiltz, M. E., Catania, A., Lipton, J. M., Anti-Inflammatory Activity of aα-MSH (11-13) Analogs: Influence of Alteration in Stereochemistry, 12 Peptides 767 (1981). […] Female BALB/C mice (Simonsen Laboratories), 7 weeks old, were housed at 23-25° C. in groups of no more than 5 per cage [28 cm (L)×18 cm (W)×13 cm (H)]. They were allowed to acclimatize to standard lighting and temperature conditions for at least 1 week, with food and water available ad lib, before the experiment began. Five to ten animals were randomly assigned to each treatment group each test day, and all experiments were repeated at least twice to confirm reproducibility. To reduce error due to slight differences in responses to the irritant of animals from different shipments, tests of each agent were performed as separate experiments in which experimental and control animals were drawn from the same shipment.
In the experiments each animal was anesthetized with 1 mg of pentobarbital sodium solution ([…], Nembutal, Abbott Laboratories, Abbott park, Ill.). Baseline ear thickness was measured for both ears with a spring-loaded micrometer (Swiss Precision Instruments, Los Angeles, Calif.). Ear thickness was expressed in units of 10^−3 cm; the average thickness of unstimulated ears was approximately 25-30×10^−3 cm. After baseline measurements were taken, one of six solutions was injected IP. […] The doses of the tripeptides were 10 μg (2.6×.10^−8 M), 20 μg (5.2×.10^−8 M), 40 μg (1.04×.10^−7 M), and 80 μg (2.08×.10^−7 M). Immediately after saline or α-MSH injection, a micropipette was used to coat both sides of each ear with 10 μl […] of a 0.5% picryl chloride (Polysciences, Warrington, Pa.) solution in acetone.
Ear thickness was remeasured 3 and 6 h after picryl chloride application. Swelling was determined by subtracting baseline thickness from the measurements for each ear at 3 and 6 h. The differences for both ears were then averaged for the final analysis.
Repeated-measure ANOVA techniques were used to determine if there was an overall difference among group data for each peptide tested in separate experiments. In those cases in which the ANOVA yielded significant results, Dunnett's test was then used to compare the effects of peptide doses with control (saline) data for each of the two time periods, 3 and 6 h.

The record followed here is patent US7115574B2, “System and method for support legacy operating system booting in a legacy-free system” (priority 2001, dated 2006).

For Ac-Lys-Pro-Val-NH2 [α-MSH(11-13)], in assay [1] (between 1 and 4 hours), the “anti-inflammatory activity (inhibition of paw edema)” value is recorded as “nearly identical anti-inflammatory activity”. Besides, in assay [1] (first hour after carrageenan injection), the “decrease in paw inflammation” value is on record as “no such reduction was observed”. In addition, the “Result (relative intensity of blue weals, experimental vs control)” value in assay [2] (0.625 ug/kg protected tripeptide intravenously) is recorded as “No difference”; in assay [2] (1.25 ug/kg protected tripeptide intravenously), “E lighter than C”; in assay [2] (5 ug/kg protected tripeptide intravenously), “E lighter than C”; in assay [2] (10 ug/kg protected tripeptide intravenously) it was “E lighter than C”. The “lowest intravenous dose giving appreciable reduction in histamine-induced blue weal formation” value in assay [2] (rabbits, intravenous) is 1.25 µg/kg. In addition, the figures for the “reduction in the number of filamentous cells / inhibition of germ tube formation” value in the assay with C. albicans and in the assay with C. albicans (listed as tripeptide) were “approximately 56%” and 54-58%, respectively. Also, the “% Inhibition 3 h” value is on record as 26% in assay [3] (10 μg IP), 21% in assay [3] (20 μg IP), 33% in assay [3] (40 μg IP) and 50% in assay [3] (80 μg IP). In addition, the “% Inhibition 6 h” value came out at 25% in assay [3] (10 μg IP), 19% in assay [3] (20 μg IP), 26% in assay [3] (40 μg IP) and 42% in assay [3] (80 μg IP). Besides, the “overall effect on inflammation (ANOVA)” value in assay [3] (10-80 μg IP, 3 and 6 h) is on record as “inhibited acute inflammation”.
